In patent publication US10369133B2, “Immunosuppressive compounds and therapeutics” (UNIVERSITY OF TENNESSEE RESEARCH FOUNDATION, priority 2013, dated 2019):

Key:
human CD3+ T cells = experiment: Mixed lymphocyte reaction: proliferation of PHA-stimulated T cells; type: cell-based; details: data not shown; TNP 5 μM
Protocol: Briefly, human peripheral blood mononuclear cells PBMCs were isolated from human buffy coat using Ficoll-Paque. […] Results are presented as the mean±S.D., n=6.
PBMCs were isolated using Ficoll Paque. T cells were isolated from PBMCs using Dynabeads for. T cells were stimulated with PHA (1 μg/ml) for 24 h alone or in the presence of TNP (5 μM) or JP-3-110 (5 μM) for additional 4 days. The total number of PBMCs was measured using T4 Automatic Cell Counter (Nexcelom, Lawrence, Mass.). The extent of T cell activation was determined by measuring the level of IL-2, IL-2sRa, TNFα and IFN-γ in the medium using ELISA at indicated time.
Mixed lymphocytes reaction was used to determine the immunosuppressive effects of MPA and JP-3-110. T cells were purified using dynabeads from peripheral blood mononuclear cells (PBMCs), which were initially isolated from human buffy coat (FIG. 8A). […] The levels of IL-2, IL-2sRa, TNFα and IFNγ were detected by ELISA to study the effects of JP-3-110 and MPA on T cell activation.

NF-κB = NF-κB SEAP reporter gene assay in INS-1E cells; type: cell-based, rat; details: printed "at 504" (FIG. 2B: 5 μM); cytokine cocktail 10 ng/mL TNFα, 5 ng/mL IL-1β, 10 ng/mL IFN-γ; 24 hours
Protocol: Briefly, a plasmid construct containing NF-kB promoter and SEAP gene was transferred into INS-1E cells by lipofectamine. SEAP was then expressed and secreted into culture supernatant and allowed […] detection using a substrate PNPP under 405 nm. […] NF-kB activity was measured 24 hours after addition of cytokine cocktail (10 ng/mL TNFα, 5 ng/mL IL-1β and 10 ng/mL IFN-γ) alone or with JP-3-110 (5 μM) or TNP (5 μM) or MPA (5 μM). Blank, no cytokine stimulation. Cyt, cytokine cocktail. Results are presented as the mean±S.D., n=3.
INS-1E cells which were stably transfected with the SEAP gene containing the response-element for NF-κB were used to screen for anti-inflammatory activity. Briefly, 10^6 cells/well were seeded overnight followed by treatment with 10 ng/mL human recombinant TNFα and either TNP or hybrid drug JP-3-110 (1 μM). SEAP activity was measured 18 h later in supernatant samples (50 µL) using the NF-κB SEAPorter™ Assay Kit (IMGENEX, San Diego, Calif.) and a microplate luminometer. SEAP activity was normalized to the total protein content.

(1S,3R,4S,5R)—N-butyl-1,3,4,5-tetrahydroxycyclohexane-1-carboxamide [TNP, reference compound]
immunosuppressive effect in mixed lymphocytes reaction (human CD3+ T cells): did not observe any immunosuppressive effect
NF-κB activities in INS-1E cells (NF-κB): significantly reduced
